What was measured:
[1] = test system: Beet Armyworm (BAW) (spodoptera exigua); experiment: Bioassay on beet armyworm (BAW), 128-well diet tray assay; assay type: in vivo; details: for pest or weed control at 50 µg/cm2: Spodoptera exigua, 168 h, % mortality, second instar larvae, 50 μg/cm^2 on artificial diet, five to seven days, 25° C., read-out: BAW Rating
Experimental: (§1) Certain molecules disclosed in this document were tested against BAW, CEW and CL using procedures described in the following examples. In the reporting of the results, the “BAW & CEW & CL Rating Table” was used (See Table Section).
Bioassays on BAW were conducted using a 128-well diet tray assay. One to five second instar BAW larvae were placed in each well (3 mL) of the diet tray that had been previously filled with 1 mL of artificial diet to which 50 μg/cm^2 of the test compound (dissolved in 50 μL of 90:10 acetone-water mixture) had been applied (to each of eight wells) and then allowed to dry. Trays were covered with a clear self-adhesive cover, and held at 25° C., 14:10 light-dark for five to seven days. Percent mortality was recorded for the larvae in each well; activity in the eight wells was then averaged. The results are indicated in the tables entitled “Table 3: Assay Results Part 1” and “Table 4: Assay Results Part 2” (See Table Section).

[2] = test system: Cabbage Looper (CL) (Trichoplusia ni); experiment: Bioassay on cabbage looper (CL), 128-well diet tray assay; assay type: in vivo; details: for pest or weed control at 50 µg/cm2: Trichoplusia ni, 168 h, % mortality, second instar larvae, 50 μg/cm^2 on artificial diet, five to seven days, 25° C., read-out: CL Rating; for CL Rating: Table 5, prophetic compounds subsequently exemplified, cabbage looper
Experimental: as §1
Bioassays on CL were conducted using a 128-well diet tray assay. One to five second instar CL larvae were placed in each well (3 mL) of the diet tray that had been previously filled with 1 mL of artificial diet to which 50 μg/cm^2 of the test compound (dissolved in 50 μL of 90:10 acetone-water mixture) had been applied (to each of eight wells) and then allowed to dry. Trays were covered with a clear self-adhesive cover, and held at 25° C., 14:10 light-dark for five to seven days. Percent mortality was recorded for the larvae in each well; activity in the eight wells was then averaged. The results are indicated in the table entitled “Table 4: Assay Results Part 2” (See Table Section).

[3] = Table 5, prophetic compounds subsequently exemplified, beet armyworm

Row | SMILES | BAW Rating [1, 3] | CL Rating [2] | also measured
1 | Cc1cc(/C=C/C(c2cc(Cl)c(Cl)c(Cl)c2)C(F)(F)F)cc(C)c1C(=O)N[C@H](C)C(=O)NCC(F)(F)F (stereo partly drawn) [FA28] |  |  | pest or weed control at 50 µg/cm2 [1]: 50 to 100%; pest or weed control at 50 µg/cm2 [2]: 50 to 100%
2 | FC(F)(F)C(/C=C/c1ccc(-n2cncn2)cc1)c1ccccc1 (stereo not drawn) [DC3] |  |  | BAW Rating ([1]; Table 3, beet armyworm): B (More than 0-Less than 50)
3 | O=C(CNC(=O)c1ccc(/C=C/C(c2cc(Cl)c(Cl)c(Cl)c2)C(F)(F)F)cc1Cl)NCC(F)F (stereo not drawn) [FA1] |  |  | pest or weed control at 50 µg/cm2 [1]: 50 to 100%; pest or weed control at 50 µg/cm2 [2]: 50 to 100%
4 | Fc1c(Cl)cc(C(/C=C/c2ccc(C(=S)NCC(=S)NCC(F)(F)F)c(Br)c2)C(F)(F)F)cc1Cl (stereo not drawn) [P14] | B (More than 0-Less than 50) | A (50-100) | 
5 | CC(C)[C@@H](NC(=O)c1ccc(/C=C/C(c2cc(Cl)c(Cl)c(Cl)c2)C(F)(F)F)cc1Br)C(=O)NCC(F)(F)F (stereo partly drawn) [FA32] |  |  | pest or weed control at 50 µg/cm2 [1]: 50 to 100%; pest or weed control at 50 µg/cm2 [2]: 50 to 100%
6 | CC(NC(=O)c1ccc(/C=C/C(c2cc(Cl)c(Cl)c(Cl)c2)C(F)(F)F)cc1Br)C(=O)NCCF (stereo not drawn) [P1616A] | A (50-100) | A (50-100) | 
7 | CC(NC(=O)CNC(=O)c1ccc(/C=C/C(c2cc(Br)cc(Br)c2)C(F)(F)F)cc1Br)C(F)(F)F (stereo not drawn) [P2009] | A (50-100) | A (50-100) | 
8 | C[C@@H](NC(=O)c1ccc(/C=C/C(c2ccc(F)c(C#N)c2)C(F)(F)F)cc1C(F)(F)F)C(=O)NCC(F)(F)F (stereo partly drawn) [P804] | A (50-100) | A (50-100) | 
9 | Cc1cc(/C=C/C(c2cc(Br)cc(Br)c2)C(F)(F)F)ccc1C(=O)NCC(=O)NCC(F)(F)F (stereo not drawn) [P1972] | A (50-100) | A (50-100) | 
10 | C[C@@H](NC(=O)c1ccc(/C=C/C(c2ccc(F)c(F)c2F)C(F)(F)F)cc1C(F)(F)F)C(=O)NCC(F)(F)F (stereo partly drawn) [P84] | A (50-100) | A (50-100) | 
11 | O=C(NC1CCN(C2COC2)CC1)c1ccc(/C=C/C(c2cc(Cl)c(Cl)c(Cl)c2)C(F)(F)F)cc1Br (stereo not drawn) [AC108, (E)-2-Bromo-N-(1-(oxetan-3-yl)piperidin-4-yl)-4-(4,4,4-trifluoro-3-(3,4,5-trichlorophenyl)but-1-en-1-yl)benzamide] |  |  | BAW Rating ([1]; Table 3, beet armyworm): B (More than 0-Less than 50)
12 | Cc1cc(/C=C/C(c2cc(Cl)c(Cl)c(Cl)c2)C(F)(F)F)ccc1C(=O)NCCC(=O)NCC(F)(F)F (stereo not drawn) [P1641] | A (50-100) | A (50-100) | 
13 | Cc1cc(C(/C=C/c2ccc(C(=O)N[C@H](C)C(=O)NCC(F)(F)F)c(C(F)(F)F)c2)C(F)(F)F)ccc1F (stereo partly drawn) [P1092] | A (50-100) | A (50-100) | 
14 | C[C@@H](NC(=O)c1ccc(/C=C/C(c2cc(Br)cc(Br)c2)C(F)(F)F)cc1C(F)(F)F)C(=O)NCCC(F)(F)F (stereo partly drawn) [P2058] | A (50-100) | A (50-100) | 
15 | C[C@@H](NC(=O)c1ccc(/C=C/C(c2cc(F)cc(Br)c2)C(F)(F)F)cc1Br)C(=O)NCC(F)(F)F (stereo partly drawn) [P298] |  | A (50-100) | 
16 | C[C@@H](NC(=O)c1ccc(/C=C/C(c2cccc(OC(F)(F)F)c2)C(F)(F)F)cc1C(F)(F)F)C(=O)NCC(F)(F)F (stereo partly drawn) [P228] | A (50-100) | A (50-100) | 
17 | C[C@@H](NC(=O)c1ccc(/C=C/C(c2cc(Br)c(Cl)c(Br)c2)C(F)(F)F)cc1Br)C(=O)NCC(F)(F)F (stereo partly drawn) [FA26] |  |  | pest or weed control at 50 µg/cm2 [1]: 50 to 100%; pest or weed control at 50 µg/cm2 [2]: 50 to 100%
18 | N#CCN1CCC(NC(=O)c2ccc(/C=C/C(c3cc(Cl)c(Cl)c(Cl)c3)C(F)(F)F)cc2Br)CC1 (stereo not drawn) [AC107] |  |  | BAW Rating ([1]; Table 3, beet armyworm): B (More than 0-Less than 50)
19 | O=C(NCC(=S)NCC(F)(F)F)c1ccc(/C=C/C(c2cc(Cl)c(Cl)c(Cl)c2)C(F)(F)F)cc1C(F)(F)F (stereo not drawn) [P1559] | A (50-100) | A (50-100) | 
20 | C=Cc1cc(/C=C/C(c2cc(Cl)c(Cl)c(Cl)c2)C(F)(F)F)ccc1C(=O)NCC(=O)NCC(F)(F)F (stereo not drawn) [FA18] |  |  | pest or weed control at 50 µg/cm2 [1]: 50 to 100%; pest or weed control at 50 µg/cm2 [2]: 50 to 100%
21 | CC(NC(=O)c1ccc(/C=C/C(c2cc(Cl)c(Cl)c(Cl)c2)C(F)(F)F)cc1Br)C(=O)NCC(F)F (stereo not drawn) [P1611A] | A (50-100) | A (50-100) | 
22 | C[C@@H](NC(=O)c1ccc(/C=C/C(c2ccc(F)c(F)c2F)C(F)(F)F)cc1Br)C(=O)NCC(F)(F)F (stereo partly drawn) [P82] | A (50-100) | A (50-100) | 
23 | CC(NC(=O)c1ccc(/C=C/C(c2cc(Cl)c(Cl)c(Cl)c2)C(F)(F)F)cc1Br)C(=O)NCCC(F)(F)F (stereo not drawn) [P1631A] | A (50-100) | A (50-100) | 

Row | SMILES | BAW Rating [1, 3] | CL Rating [2] | also measured
24 | Cc1cc(C(/C=C/c2ccc(C(=O)N[C@H](C)C(=O)NCC(F)(F)F)c(C(F)(F)F)c2)C(F)(F)F)cc(C)c1F (stereo partly drawn) [P516] | A (50-100) | A (50-100) | 
25 | CS(=O)(=O)c1cc(/C=C/C(c2cc(Cl)c(F)c(Cl)c2)C(F)(F)F)ccc1C(=O)NCC(=O)NCC(F)(F)F (stereo not drawn) [FA34] |  |  | pest or weed control at 50 µg/cm2 [2]: 50 to 100%
26 | O=C(CNC(=O)c1ccc(/C=C/C(c2cc(F)cc(C(F)(F)F)c2)C(F)(F)F)cc1Br)NCC(F)(F)F (stereo not drawn) [P1340] | A (50-100) | A (50-100) | 
27 | CSc1cc(/C=C/C(c2cc(Cl)c(F)c(Cl)c2)C(F)(F)F)ccc1C(=O)NCC(=O)NCC(F)(F)F (stereo not drawn) [P12] | A (50-100) | A (50-100) | 
28 | Cc1cc(/C=C/C(c2cc(Cl)c(Cl)c(Cl)c2)C(F)(F)F)ccc1C(=O)NCC(=S)NCC(F)(F)F (stereo not drawn) [P1560] | A (50-100) | A (50-100) | 
29 | Cc1cc(/C=C/C(c2cc(Br)cc(Br)c2)C(F)(F)F)ccc1C(=O)NCC(=O)NC(C)C(F)(F)F (stereo not drawn) [P2012] | A (50-100) | A (50-100) | 
30 | O=C(CNC(=O)c1ccc(/C=C/C(c2cc(Cl)c(Cl)c(Cl)c2)C(F)(F)F)cc1C(F)(F)F)NCC(F)F (stereo not drawn) [P1566] | A (50-100) | A (50-100) | 
31 | CC(C)(NC(=S)c1ccc(/C=C/C(c2cc(Cl)c(Cl)c(Cl)c2)C(F)(F)F)cc1Cl)C(=S)NCC(F)(F)F (stereo not drawn) [FA10] |  |  | pest or weed control at 50 µg/cm2 [1]: 0 to 50%; pest or weed control at 50 µg/cm2 [2]: 0 to 50%
32 | O=C(CNC(=O)c1ccc(/C=C/C(c2cc(Cl)c(Cl)c(Cl)c2)C(F)(F)F)cc1C(F)(F)F)NCC(F)(F)F (stereo not drawn) [P1556] | A (50-100) | A (50-100) | 
33 | Cc1cc(/C=C/C(c2cc(Cl)c(Cl)c(Cl)c2)C(F)(F)F)ccc1C(=S)NCC(=O)NCC(F)(F)F (stereo not drawn) [P1564] | A (50-100) | A (50-100) | 
34 | Nc1cc(/C=C/C(c2cc(Cl)c(F)c(Cl)c2)C(F)(F)F)ccc1C(=O)NCC(=O)NCC(F)(F)F (stereo not drawn) [FA6] |  |  | pest or weed control at 50 µg/cm2 [1]: 50 to 100%; pest or weed control at 50 µg/cm2 [2]: 50 to 100%
35 | C[C@@H](NC(=O)c1ccc(/C=C/C(c2cc(Cl)c(Cl)c(Cl)c2)C(F)(F)C(F)(F)F)cc1Br)C(=O)NCC(F)(F)F (stereo partly drawn) [P1599] | A (50-100) | A (50-100) | 
36 | C[C@@H](NC(=O)c1ccc(/C=C/C(c2cc(Cl)c(Cl)cc2Cl)C(F)(F)F)cc1Br)C(=O)NCC(F)(F)F (stereo partly drawn) [P156] | A (50-100) | A (50-100) | 
37 | CC(C)(NC(=O)c1ccc(/C=C/C(c2cc(Cl)c(Cl)c(Cl)c2)C(F)(F)F)cc1Br)C(=S)NCC(F)(F)F (stereo not drawn) [FA11] |  |  | pest or weed control at 50 µg/cm2 [1]: 0 to 50%; pest or weed control at 50 µg/cm2 [2]: 50 to 100%
38 | O=C(CNC(=O)c1ccc(/C=C/C(c2cc(Br)cc(Br)c2)C(F)(F)F)cc1Cl)NCC(F)(F)F (stereo not drawn) [P1970] | A (50-100) | A (50-100) | 
39 | CCNC(=O)NCc1ccc(/C=C/C(c2cc(Cl)cc(Cl)c2)C(F)(F)F)cc1Cl (stereo not drawn) [CC31, (E)-1-(2-Chloro-4-(3-(3,5-dichlorophenyl)-4,4,4-trifluorobut-1-en-1-yl)benzyl)-3-ethylurea] |  |  | BAW Rating ([1]; Table 3, beet armyworm): B (More than 0-Less than 50)
40 | O=C(NCC(=S)NCC(F)(F)F)c1ccc(/C=C/C(c2cc(Cl)c(Cl)c(Cl)c2)C(F)(F)F)cc1Br (stereo not drawn) [AC92, (E)-2-Bromo-N-(2-thioxo-2-((2,2,2-trifluoroethyl)amino)ethyl)-4-(4,4,4-trifluoro-3-(3,4,5-trichlorophenyl)but-1-en-1-yl)benzamide] |  |  | BAW Rating ([1]; Table 3, beet armyworm): A (50-100)
41 | O=C(CNC(=O)c1ccc(/C=C/C(c2cc(Cl)c(O)c(Cl)c2)C(F)(F)F)cc1Br)NCC(F)(F)F (stereo not drawn) [FA13] |  |  | pest or weed control at 50 µg/cm2 [2]: 50 to 100%
42 | O=C(CCNC(=O)c1ccc(/C=C/C(c2cc(Cl)c(Cl)c(Cl)c2)C(F)(F)F)cc1C(F)(F)F)NCC(F)(F)F (stereo not drawn) [P1640] |  | A (50-100) | 
43 | O=C(NCCc1ccc(Cl)nc1)c1ccc(/C=C/C(c2cc(Cl)c(Cl)c(Cl)c2)C(F)(F)F)cc1Br (stereo not drawn) [AC113] |  |  | BAW Rating ([1]; Table 3, beet armyworm): B (More than 0-Less than 50)
44 | N#Cc1c(F)cc(C(/C=C/c2ccc(C(=O)NCC(=O)NCC(F)(F)F)c(Br)c2)C(F)(F)F)cc1F (stereo not drawn) [P2] |  | A (50-100) | 
45 | O=C(NCc1ccc(/C=C/C(c2cc(Cl)c(Cl)c(Cl)c2)C(F)(F)F)cc1C(F)(F)F)c1cccnc1 (stereo not drawn) [CC23] |  |  | BAW Rating ([1]; Table 3, beet armyworm): A (50-100)

From patent US9226501B2, “Pesticidal compositions and processes related thereto” (Dow AgroSciences LLC, priority 2012, dated 2016)
